# Experimental data: US8044094B2, “Agents for preventing and treating disorders connected to impaired neurotransmission” (DSM IP Assets B.V., priority 2004, dated 2011)
# Key:
# mice = assay: Marble burying test (anxiety like or obsessive compulsive behaviour); format: in vivo; conditions: for number of marbles covered by sawdust, mean ± s.e.m.: 25 marbles, 30-minute test
# Experimental: The method applied here follows that described by Broekkamp et al. (1986). Mice (n=15 per treatment group) were individually placed in transparent plastic cages (33×21×18 cm) with 5 cm of sawdust on the floor and 25 marbles (diameter 1 cm) grouped in the centre of the cage. A second, up-turned, cage served as a lid. The number of marbles covered by sawdust (by at least two-thirds) was counted at the end of the 30-minute test period. Tests were performed by investigators blind to the drug treatment protocol.
# Prior to testing, all test cages and marbles were “impregnated” by leaving 10 naive mice in each cage for 15 minutes.
# 7-Geranyl-oxycoumarin was evaluated at 3, 10 and 30 mg/kg, administered i.p. 30 minutes before the test, and compared with a vehicle control group. 7-Geranyl-oxycoumarin was dissolved in a saline solution containing 3 weight-% DMSO and 3 weight-% Tween® 80 (so called “vehicle”). To the control group the vehicle consisting of the saline solution containing 3 weight-% DMSO and 3 weight-% Tween® 80 was administered intraperitonally. Fluoxetine (32 mg/kg), administered under the same experimental conditions, was used as a reference substance.
# Data were analysed by comparing treated groups with vehicle control using unpaired Student's t-tests.
# [1] = target: T1, human serotonin re-uptake transporter (hSERT) (Homo sapiens, UniProt P31645); assay: Serotonin uptake inhibition in HEK-293 cells stably expressing hSERT; format: cell-based
# Experimental: HEK-293 cells stably expressing the human serotonin re-uptake transporter (hSERT) were obtained from R. Blakely, Vanderbilt University, USA. The cells were routinely grown in Dulbeco's Modified Eagles Medium, purchased from Bioconcept, Allschwil, Switzerland containing 10% fetal calf serum, penicillin, streptomycin, L-glutamine and the antibiotic G418 and passaged by trypsinisation. 1 day prior to the assay cells were seeded in the above mentioned medium. Immediately prior to the assay the medium was replaced by Krebs Ringers bicarbonate buffer, purchased from Sigma Chemicals Ltd., supplemented with 35 μM pargyline, 2.2 mM CaCl2, 1 mM ascorbic acid and 5 mM N-2-hydroxyethylpiperazine-N′-2-ethanesulfonic acid (buffer called “Hepes”). Serotonin uptake into the cells was determined by addition of radio-labeled (3H) serotonin (Amersham Biosciences GE Healthcare, Slough, UK) to a concentration of 20 nM, and incubation for 30 minutes at room temperature. Following removal of unincorporated label by gentle washing three times with the above buffer, incorporated serotonin was quantified by liquid scintillation counting.
# (§1) The effect of the coumarin ethers of formula I on the serotonin uptake and the citalopram binding was determined by its inclusion in the assay at a range of concentrations between 0.03 and 100 μM for 10 minutes prior to and during the addition of (3H) serotonin/citalopram. Serotonin uptake via the transporter and citalopram binding were both inhibited by the coumarin ethers of formula I in a dose dependent manner. The calculated inhibition constants Ki, derived from the measured IC50 using the Cheng—Prusoff equation (Y. C. Cheng, W. H. Prusoff, Biochem. Pharmacol. 1973, 22, p. 3099-3108), for inhibition of serotonin uptake and citalopram binding by coumarin ethers of the formula I are shown in Table 1.
# [2] = target: T1, human serotonin re-uptake transporter (hSERT); assay: Labeled citalopram displacement from hSERT containing membranes (SPA); format: binding
# Experimental: Membranes containing hSERT were prepared from the above cell line according to Galli et al, Journal of Experimental Biology 1995, 198, 2197-2212. 3 μg of membrane protein and 0.8 mg of wheat germ aglutinin coated SPA® (scintillation proximity assay) beads (Amersham Biosciences GE Healthcare, Slough, UK) per data point were mixed with radio-labeled (3H) citalopram (Amersham Biosciences GE Healthcare, Slough, UK) until a final concentration of 3.3 nM in 50 mM Tris-HCl, 300 mM NaCl (pH 7.4). After incubation for 18 hours at room temperature, the bound citalopram was quantified by liquid scintillation counting.
# as §1
# [3] = transfected HEK-293 cells, Ki from IC50 by Cheng-Prusoff, 20 nM (3H) serotonin, read-out: Inhibition constant Ki for tritiated serotonin uptake
# [4] = hSERT containing membranes, Ki from IC50 by Cheng-Prusoff, 3.3 nM (3H) citalopram, read-out: Inhibition constant Ki for tritiated citalopram displacement
# T1 sequence (P31645 whole entry): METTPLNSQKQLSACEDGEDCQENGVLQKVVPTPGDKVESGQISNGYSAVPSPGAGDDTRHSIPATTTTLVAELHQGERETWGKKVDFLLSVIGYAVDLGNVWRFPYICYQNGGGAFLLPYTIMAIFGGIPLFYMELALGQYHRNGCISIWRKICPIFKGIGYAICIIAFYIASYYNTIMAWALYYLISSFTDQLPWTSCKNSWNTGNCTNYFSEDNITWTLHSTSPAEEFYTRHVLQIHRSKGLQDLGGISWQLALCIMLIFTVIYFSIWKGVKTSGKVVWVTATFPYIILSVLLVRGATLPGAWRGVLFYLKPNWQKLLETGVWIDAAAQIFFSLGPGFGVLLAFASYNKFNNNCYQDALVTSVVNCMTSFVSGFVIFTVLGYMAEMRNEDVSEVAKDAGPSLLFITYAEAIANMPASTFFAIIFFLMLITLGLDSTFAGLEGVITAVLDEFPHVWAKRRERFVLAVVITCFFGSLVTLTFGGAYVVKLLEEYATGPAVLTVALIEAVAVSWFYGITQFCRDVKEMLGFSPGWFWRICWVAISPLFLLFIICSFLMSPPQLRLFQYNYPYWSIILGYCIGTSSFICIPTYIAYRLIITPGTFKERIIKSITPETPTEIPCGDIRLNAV
structure (smiles),measurement,setting,value
"CNCCC(Oc1ccc(C(F)(F)F)cc1)c1ccccc1 (stereo not drawn) [fluoxetine, reference compound]","number of marbles covered by sawdust, % change from control","mice; 32 mg/kg i.p. −30 min, 32 mg/kg",−98%
same,"number of marbles covered by sawdust, mean ± s.e.m.",mice; 32 mg/kg i.p. −30 min,0.3 ± 0.2
same,"number of marbles covered by sawdust, % change from control","mice; 32 mg/kg i.p. −30 min, listed as Fluoxetine, 32 mg/kg",−98%
"CC1(C)C=Cc2cc3ccc(=O)oc3cc2O1 [Xanthyletin, xanthyletin]",Ki,[1]; [3],20.2 µM
same,Ki,[2]; [4],11.9 µM
"C/C(=C\COc1ccc2ccc(=O)oc2c1)C1=CC(=O)C(C)(C)O1 [Geiparvarin, geiparvarin]",Ki,[1],7 µM
same,Ki,[2],5.6 µM
"C/C(=C\COc1ccc2ccc(=O)oc2c1)CCC(=O)C(C)(C)O [6′-Dehydromarmin, 6′-dehydromarmin]",Ki,[1]; [3],12.1 µM
same,Ki,[2]; [4],10.3 µM
CC(=O)OC(C)(C)[C@@H]1Cc2c(ccc3ccc(=O)oc23)O1 [(S)—O-Acetylcolumbianetin],Ki,[1]; [3],21.7 µM
same,Ki,[2]; [4],11.6 µM
"COc1cc2oc(=O)ccc2cc1CC=C(C)C [Suberosin, suberosin]",Ki,[1]; [3],9.8 µM
same,Ki,[2]; [4],39.3 µM
"CC(C)=CCC/C(C)=C/COc1ccc2ccc(=O)oc2c1 [7-Geranyloxycoumarin, 7-geranyloxycoumarin]","number of marbles covered by sawdust, % change from control","mice; 3 mg/kg i.p. −30 minutes, 3 mg/kg",−27%
same,"number of marbles covered by sawdust, mean ± s.e.m.",mice; 3 mg/kg i.p. −30 minutes,13.4 ± 2.0
same,"number of marbles covered by sawdust, % change from control","mice; 3 mg/kg i.p. −30 minutes, listed as 7-Geranyl-oxycoumauin, 3 mg/kg",−27%
same,"number of marbles covered by sawdust, % change from control","mice; 10 mg/kg i.p. −30 minutes, 10 mg/kg",−39%
same,"number of marbles covered by sawdust, mean ± s.e.m.",mice; 10 mg/kg i.p. −30 minutes,11.3 ± 2.4
same,"number of marbles covered by sawdust, % change from control","mice; 10 mg/kg i.p. −30 minutes, listed as 7-Geranyl-oxycoumauin, 10 mg/kg",−39%
same,"number of marbles covered by sawdust, % change from control","mice; 30 mg/kg i.p. −30 minutes, 30 mg/kg",−74%
same,"number of marbles covered by sawdust, mean ± s.e.m.",mice; 30 mg/kg i.p. −30 minutes,4.7 ± 1.5
same,"number of marbles covered by sawdust, % change from control","mice; 30 mg/kg i.p. −30 minutes, listed as 7-Geranyl-oxycoumauin, 30 mg/kg",−74%
same,Ki,[1]; [3],22.4 µM
same,Ki,[2]; [4],24.2 µM
